Data taken from ChEMBL document CHEMBL3808322, “Structure-based discovery of novel 4,5,6-trisubstituted pyrimidines as potent covalent Bruton's tyrosine kinase inhibitors” (Bioorg Med Chem Lett, 2016).

molecular target: T1, Tyrosine-protein kinase BTK (Homo sapiens, UniProt Q06187); assay: Inhibition of BTK (unknown origin)
T1 sequence (Q06187 whole entry): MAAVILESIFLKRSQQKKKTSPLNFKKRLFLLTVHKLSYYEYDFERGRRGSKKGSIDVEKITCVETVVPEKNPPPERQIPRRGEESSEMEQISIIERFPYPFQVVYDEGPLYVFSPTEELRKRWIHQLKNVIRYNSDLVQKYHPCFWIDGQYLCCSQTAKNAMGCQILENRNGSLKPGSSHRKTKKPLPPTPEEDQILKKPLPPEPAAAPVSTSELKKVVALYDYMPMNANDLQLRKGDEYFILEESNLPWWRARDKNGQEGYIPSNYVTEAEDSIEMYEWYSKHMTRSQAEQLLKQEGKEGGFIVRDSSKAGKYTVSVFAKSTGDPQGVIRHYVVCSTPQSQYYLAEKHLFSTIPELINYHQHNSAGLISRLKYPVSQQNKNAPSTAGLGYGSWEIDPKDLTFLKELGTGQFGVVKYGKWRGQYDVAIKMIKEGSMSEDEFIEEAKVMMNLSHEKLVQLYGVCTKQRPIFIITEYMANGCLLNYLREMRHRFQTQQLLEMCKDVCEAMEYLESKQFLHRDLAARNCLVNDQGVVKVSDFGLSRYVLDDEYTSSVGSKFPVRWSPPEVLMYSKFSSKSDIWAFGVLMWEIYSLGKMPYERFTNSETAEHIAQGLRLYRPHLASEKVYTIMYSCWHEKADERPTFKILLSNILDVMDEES

Row | IC50 [nM] | SMILES
1 | 23.9 | C=CC(=O)N1CCC[C@@H](n2c(=O)n(-c3ccc(Oc4ccccc4)cc3)c3c(N)ncnc32)C1
2 | 1 | C=CC(=O)Nc1cccc(Oc2nc(Nc3ccc(N4CCN(C)CC4)cc3)nc3ccsc23)c1 [OLMUTINIB]

molecular target: T1, Tyrosine-protein kinase BTK; assay: Inhibition of BTK (unknown origin) assessed as reduction in phosphorylation of coumarin and fluorescein-labeled FRET peptide substrate incubated for 1 hr by Z-Lyte assay

Row | IC50 [nM] | SMILES
3 | 880 | C=CC(=O)N1CCN(c2ncnc(N)c2C(=O)c2ccc(Oc3ccccc3)cc2)CC1
4 | 1070 | C=CC(=O)N1CCC(Nc2ncnc(N)c2C(=O)c2ccc(Oc3ccccc3)cc2)CC1
5 | 1320 | C=CC(=O)N1CCN(c2ncnc(N)c2C(=O)c2ccc(OCC)cc2)CC1
6 | 1800 | C=CC(=O)N1CCC[C@@H](Nc2ncnc(N)c2C(=O)c2ccc(OCC)cc2)C1
7 | 70 | C=CC(=O)N1CCC[C@@H](Nc2ncnc(N)c2C(=O)c2ccc(Oc3ccccc3)cc2)C1
